Laboratory results: patent US20100216661A1, “Diagnostic Assay” (priority 2007, published 2010)
Each block holds one substance with its values, some of them ahead of it.

Legend:
[1] = test system: anti-Fy^b monoclonal antibody (LM447); assay: Phage ELISA (capture ELISA) of phage-peptides on coated anti-Fy^b antibody; format: binding, Murine; settings: FIG. 1; LM447 coated from 10 μg/ml stock; phage culture supernatant; OD450 greater than 0.1 considered positive; 20 phage assayed
Method: (§1) The ability of the recovered phage-peptides to react with the antibodies used in their selection was confirmed by capture ELISA. A 10 μg/ml stock of appropriate monoclonal antibody was prepared in ELISA coating buffer and 150 μl aliquots were added to wells of an Immulon 4 ELISA plate, and then incubated overnight at 4° C. Unbound antibody was discarded and the wells were blocked with 350 μl of blocking buffer (0.1M NaHCO3/3% skimmed milk powder) for 1 hour at 4° C. The wells were washed three times with 300 μl TBS/0.5% Tween 20 and 100 μl of selected phage culture supernatants were added to appropriate wells for 1 hour at room temperature. Unbound phage were removed and the wells washed six times with 300 μl TBS/0.5% Tween 20. A 1:5000 dilution of horseradish peroxidase (HRP) conjugated anti-M13, secondary antibody was prepared in blocking buffer and 100 μl aliquots added to each well. Following incubation for 1 hour at room temperature the wells were washed six times with 300 μl TBS/0.5% Tween 20. To develop the reactions, a 200 μl aliquot of o-phenylenediamine dihydrochloride (OPD) substrate (Sigma) was added to each well. The absorbance at 450 nm was measured, following incubation at room temperature for 1 hour, by a microplate ELISA reader. An OD450 signal greater than 0.1 was considered positive.
The phage ELISA results confirmed the binding of the anti-Fy^b monoclonal, LM447. A 10 μg/ml stock of this monoclonal antibody was prepared in ELISA coating buffer and 150 μl aliquots were added to wells of an Immulon 4 ELISA plate, and then incubated overnight at 4° C. Unbound antibody was discarded and the wells were blocked with 350 μl of blocking buffer for 1 hour at 4° C. The wells were washed three times with 300 μl TBS/0.5% Tween 20 and 100 μl of selected phage culture supernatants were added to appropriate wells for 1 hour at room temperature. Unbound phage were removed and the wells washed six times with 300 μl TBS/0.5% Tween 20. A 1:5000 dilution of horseradish peroxidase (HRP) conjugated anti-M13, secondary antibody was prepared in blocking buffer and 100 μl aliquots added to each well. Following incubation for 1 hour at room temperature the wells were washed six times with 300 μl TBS/0.5% Tween 20. To develop the reactions, 200 μl aliquots of o-phenylenediamine dihydrochloride (OPD) substrate (Sigma) was added to each well. The absorbance at 450 nm was measured following incubation at room temperature for 1 hour. The absorbance values at 450 nm, confirmed the binding of 14 (Peptides Fyb1, Fyb2, Fyb4-5, Fyb7-13, Fyb25, 27 & 28) of the 20 phage assayed (see FIG. 1).

[2] = test system: anti-Fy^b monoclonal antibody (LM447); assay: SPOTs membrane hybridisation with anti-Fy^b antibody; format: binding, Murine; settings: FIG. 2; 20 Fyb peptides in duplicate; CPep75 (Spot 21) positive control; 2 μg/ml primary antibody; chemiluminescence
Method: (§2) The peptide mimotopes were synthesised by the SPOT method (Frank; 1992) using F-moc chemistry. The peptides were anchored to an amino-PEG derivatised cellulose membrane (Intavis AG) and synthesised as discrete spots. Synthesis was by stepwise elongation of the peptide chain from C-terminus to the N-terminus, by manual pipetting of the respective amino acids, according to the Sigma Genosys protocol. Incubation times were modified when using Intavis AG membranes. After addition of the final amino acid, the terminal residues and side chains of the peptides were deprotected and the membrane was washed with methanol; air dried and then stored at −20° C. prior to use.
(§3) A membrane was placed in a 50 ml Falcon tube and blocked overnight at 4° C. with gentle agitation in TBS/0.25% Tween 20/5% skimmed milk powder. A 2 μg/ml dilution of the primary (1°) antibody (monoclonal or polyclonal) was prepared in TBS/0.25% Tween20/5% skimmed milk powder before incubation with the membrane for 1 hour at room temperature on a spiral rotor. Following 4 washes, each for 5 minutes with 20 ml of TBS/0.25% Tween20, the membrane was incubated for 1 hour at room temperature with a 1/5000 dilution of the secondary (2°) antibody, prepared in TBS/0.25% Tween20/5% skimmed milk powder. Peroxidase labelled rabbit anti-mouse IgG (Sigma) was used for the detection of the murine anti-Fy^a (LM487) and anti-Fy^b (LM447) 1° antibodies and peroxidase labelled goat anti-human IgG (Pharmacia) for the detection of the human 1° antibodies. Following 4 washes, each for 5 minutes with 20 ml of TBS/0.25% Tween20, the membrane was blotted to remove excess fluid. Bound antibody was detected by chemiluminescence. ECL detection reagents (Amersham Biosciences) were mixed and overlaid on the membrane for 2 minutes. The chemiluminescent substrate was removed and the membrane blotted to remove excess fluid. Positive spots were visualised following exposure to Hyperfilm ECL (Amersham Biosciences) for a series of short incubation times (5 seconds to 10 minutes).

[3] = test system: anti-Fy^a monoclonal antibody (LM487); assay: Biopanning of phage-peptide libraries with anti-Fy^a LM487; format: binding, Murine; settings: three rounds of panning
From the text: (§4) Three different phage libraries from New England Biolabs. (Ph.D. 7 and Ph.D. 12 displaying linear 7- and 12-mer peptides, respectively and Ph.D. C7C displaying 7-mer peptides constrained by a disulphide bridge at their termini) and a linear 15mer library (kindly provided by Prof. George P. Smith, University of Missouri) were used in biopanning experiments with 10 different monoclonal antibodies and a polyclonal preparation (Table 1).
For each target antibody/library combination, a separate well of a 96-well Immulon 4 flat-bottomed ELISA plate (Thermo Labsystems) was coated with 5 μg of antibody in 150 μl ELISA coating buffer (15 mM Na2CO3, 35 mM NaHCO3, pH9.6). Plates were sealed and incubated at 4° C. overnight. Unbound antibody was discarded and 350 μl of blocking buffer (0.1M NaHCO3/3% skimmed milk powder) was added to each well. Plates were sealed and incubated for 1 hour at 4° C. The blocking buffer was removed and the wells were washed six times with 300 μl TBS/0.1% Tween 20. Approximately 2×10^11 plaque forming units (pfu) in 100 μl TBS/0.1% Tween 20 were added to each well and the plates were incubated at room temperature for 1 hour. Wells were washed ten times with 300 μl TBS/0.1% Tween 20. […] The specificity of peptide-antibody binding was subsequently determined using both phage ELISA and SPOTs techniques.

[4] = test system: anti-Fy^a monoclonal antibody (LM487); assay: Phage ELISA (capture ELISA) of phage-peptides on coated anti-Fy^a antibody; format: binding, Murine; settings: FIG. 3; 19 Fya phage-peptide clones (Fya1-18 & Fya25); OD450 greater than 0.1 considered positive
Method: as §1
Phage ELISA analysis of 19 “Fy^a” phage-peptide clones (Peptides Fya1-18 & Fya25; see Table 3 for sequence details) confirmed the binding specificity of the LM487 antibody for the Fy^a phage-peptides.

[5] = test system: anti-Fy^a monoclonal antibody (LM487); assay: SPOTs membrane hybridisation with anti-Fy^a antibody; format: binding, Murine; settings: FIG. 4; 37 peptides Fya1-37 synthesised as SPOTs
Method: as §2
A membrane was placed in a 50 ml Falcon tube and blocked overnight at 4° C. with gentle agitation in TBS/0.25% Tween 20/5% skimmed milk powder. A 2 μg/ml dilution of the primary (1°) antibody (monoclonal or polyclonal) was prepared in TBS/0.25% Tween20/5% skimmed milk powder before incubation with the membrane for 1 hour at room temperature on a spiral rotor. Following 4 washes, each for 5 minutes with 20 ml of TBS/0.25% Tween20, the membrane was incubated for 1 hour at room temperature with a 1/5000 dilution of the secondary (2°) antibody, prepared in TBS/0.25% Tween20/5% skimmed milk powder. […] Bound antibody was detected by chemiluminescence. […]

[6] = test system: polyclonal anti-RhD preparation (Human Anti-D Ig); assay: SPOTs membrane hybridisation with polyclonal anti-RhD; format: binding; settings: FIG. 8; Spots 1-25 = RhD81-105; Spots 26-28 = RhD68, RhD71, RhD79; Spot 29 CPep75 and Spot 30 CPep76 negative controls
Method: as §2
as §3, with “minutes). […]” for “minutes).”

[7] = test system: anti-RhD monoclonal antibody T10 (LHM76/55); assay: Biopanning of phage-peptide libraries with anti-RhD T10; format: binding, Human; settings: phage-peptide libraries; three rounds of panning
From the text: as §4
For each target antibody/library combination, a separate well of a 96-well Immulon 4 flat-bottomed ELISA plate (Thermo Labsystems) was coated with 5 μg of antibody in 150 μl ELISA coating buffer (15 mM Na2CO3, 35 mM NaHCO3, pH9.6). Plates were sealed and incubated at 4° C. overnight. Unbound antibody was discarded and 350 μl of blocking buffer (0.1M NaHCO3/3% skimmed milk powder) was added to each well. Plates were sealed and incubated for 1 hour at 4° C. The blocking buffer was removed and the wells were washed six times with 300 μl TBS/0.1% Tween 20. Approximately 2×10^11 plaque forming units (pfu) in 100 μl TBS/0.1% Tween 20 were added to each well and the plates were incubated at room temperature for 1 hour. Wells were washed ten times with 300 μl TBS/0.1% Tween 20. Bound phage were eluted by incubation with 100 μl of 0.2M glycine-HCl/BSA, pH2.2 (1 mg/ml) for 10 minutes, then neutralised with 15 μl of 1M Tris-HCL (pH9.1). An aliquot of the Round 1 eluate was removed and titred. The remainder of the eluted phage were amplified by infection of E. coli ER2538 cells for 4.5 hours at 37° C. The cultures were centrifuged for 10 minutes at 10,000 rpm at 4° C. The supernatants were recovered, ⅙ volume PEG/NaCl (20% polyethylene glycol 8000; 2.5M NaCl) added, then incubated overnight at 4° C. The PEG-precipitated phage were centrifuged at 10,000 rpm for 15 minutes at 4° C. The supernatant was removed and the phage pellet resuspended in 200 μl TBS. Two further rounds of panning were undertaken and approximately 2×10^11 pfu of the Round 2 or Round 3 amplified eluates were used as input phage. Round 3 eluates were titrated but not amplified. Individual plaques were amplified and subjected to PCR amplification, prior to DNA sequence analysis. The specificity of peptide-antibody binding was subsequently determined using both phage ELISA and SPOTs techniques.

Substance: Fya20: Fya peptide mimotope, Table 3; contains sequence identical to the Fy^a polymorphism (GIAEDDYGALSW)
Selection by biopanning with anti-Fy^a monoclonal antibody LM487 [3]: bound

Substance: Fya18: Fya peptide mimotope, Table 3 (PSPGQI)
Phage ELISA binding of phage-peptide to anti-Fy^a antibody LM487 [4]: failed to bind

Substance: MYQDTPPPRKNV [Fyb1]
Phage ELISA binding of phage-peptide to anti-Fy^b antibody LM447 (absorbance at 450 nm) [1]: phage ELISA signals equally as strong as Peptides Fyb12 and Fyb13 | SPOTs binding of anti-Fy^b antibody LM447 to membrane-synthesised peptide [2]: failed to react

Substance: RhD71: RhD peptide mimotope, Table 4 (VPWFRAP)
SPOTs recognition by polyclonal anti-RhD [6]: recognised | Selection by biopanning with anti-RhD monoclonal antibody T10 [7]: identified through biopanning

Substance: RhD79: RhD peptide mimotope, Table 4 (LPWYRH)
SPOTs recognition by polyclonal anti-RhD [6]: recognised | Selection by biopanning with anti-RhD monoclonal antibody T10 [7]: identified through biopanning

More lines, main results first:

SPOTs binding of anti-Fy^b antibody LM447 to membrane-synthesised peptide [2]: failed to react
Substance: MFQEHTPAFGGL [Fyb7]
Phage ELISA binding of phage-peptide to anti-Fy^b antibody LM447 (absorbance at 450 nm) [1]: phage ELISA signals equally as strong as Peptides Fyb12 and Fyb13

Phage ELISA binding of phage-peptide to anti-Fy^a antibody LM487 [4]: failed to bind
Substance: Fya2: Fya peptide mimotope, Table 3 (TNLRLPA)

SPOTs binding of anti-Fy^a antibody LM487 to membrane-synthesised peptide [5]: strong positive signal
Substance: Fya15: Fya peptide mimotope, Table 3; contains sequence identical to the Fy^a polymorphism (SDGDYGA)
Selection by biopanning with anti-Fy^a monoclonal antibody LM487 [3]: bound
